Patent US20190008810A1, “METHOD FOR PREVENTION, TREATMENT AND ALLEVIATION OF INFECTIOUS DISEASES AND DISORDERS” (REPLICON HEALTH OY, priority 2016, published 2019)

Tests used:
metabolism of alcohol = details: administered with ethanol to rats; cited from earlier work
CRP = assay: Blood CRP in continuous IPA/Dry Eye disease model; format: in vivo, mice
Experimental: Tear volume was measured for groups 3 and 4 and later comparison results for group 2 were received. The blood samples were collected from saphenous vein on day 5 (prior the treatment) and on day 7, just prior anesthesia and during the perfusion (cardiac puncture). On day 7, the animals were terminally anesthetized and transcardially perfused. Plasma was separated in all collected blood samples and kept frozen at −80° C. until the measurements. CRP measurements were performed using mouse CRP ELISA kit. […] In addition, animals were monitored daily for general health status. The lacrimal glands were embedded into paraffin, sectioned, stained and analyzed for possible pathology.
In this Example, CRP results from 3 separate preclinical tests are presented and analyzed. […] CRP present in mouse serum samples were analyzed using mouse CRP ELISA kit (GWB-3B960E, Genway Biotech Inc.). […]
In two other CRP tests, the effect of the DGA Activation in two disease models, continuous vs. discontinuous was analyzed. […] Logarithmic change of blood CRP during the 7-day disease follow up period of each mouse in all groups was calculated and the averages are presented in FIGS. 4b and 4c. […]
Brief description of the disease models: 1) continuous IPA -model (see Example 1a) and 2) discontinuous MPTP/PD -model. […] Diet consumption per cage is monitored carefully before and during the study follow-up period. […]

[1] = tested on: HO-1, GRHPR, PGC-1a and NRF1 pathway genes; assay: Gene expression in peripheral leukocytes after 4.5-day administration, Example 5b; format: in vivo, human
Experimental: FIG. 13a: In this 4.5-day experiment samples of peripheral leukocytes were collected from standard blood sample of S1 and S9 in fasting condition (0 h), and 1 hour (1 h) after taking 75 grams of glucose (Glutole, Biofile Pharma, 330 ml) for glucose tolerance test. After the collection of the blood samples the leukocytes were immediately separated, and after separation immediately lysed by stop solution and stored in freezer in line with the instructions by the service provider.
Gene expression was measured from those peripheral leukocyte (=white blood cells). Additionally, basal (=0-Control) gene expression of all genes was later measured for S1. This was done using a different gene expression method for genome wide sequencing.
The doses used were 250 mg taken twice a day, in the morning and before going to bed. The last DGA dose was double in size (some 8 mg/kg), and it was taken in the same morning as the collection of blood samples. Relatively high dose and 2.5 hours to measurement was chosen to see clearer dose response in gene expression from peripheral leukocytes.
In the FIG. 13a it is shown that UTPfsAEM gene expressions are activated markedly in peripheral leukocytes after 4.5 day DGA Activation compared to 0-control. The analysis of selected genes was conducted both in fasting conditions and 1 h after glucose intake (“fed” in FIG. 13a)) and in acute dosing, i.e. only 2.5 hours from last DGA dose.

O=C(O)[C@H](O)CO [DGA, D-glyceric acid]
metabolism of alcohol (metabolism of alcohol): expedited the metabolism of alcohol | survival and health parameters (CRP; 4+7-day administration): improved survival and health parameters | blood CRP change vs 0-control (CRP; 7-day IPA after 4-day priming, p-value=0.027): increased statistically significantly | GRHPR gene expression ([1]; fasting and fed, after 4.5 days): upregulated very significantly | HO-1 gene expression ([1]; fasting and fed, after 4.5 days, 2.5 hours from last dose): upregulated very significantly | genes related to PGC-1a and NRF1 pathways ([1]; fasting, after 4.5 days vs 0-control): activated statistically very significantly | increase of HO-1 expression ([1]; peripheral leukocytes in vivo): more than 100%
